# Data from patent publication US20160128935A1, “METHOD OF TREATING AN ANIMAL” (priority 2012, published 2016).
# Tested on: bacterial infections
# Test: Treatment of cichlids having bacterial infections by feeding injected live worms
# Format: in vivo
# Details: Emperor and Peacock Cichlids with bacterial infections; one injected live worm per fish for six days
# Protocol: Emperor Cichlids and Peacock Cichlids (fish) having bacterial infections were treated using one live food creature (a live worm) per fish for six days. Each worm was injected with Antibiotic Metronidazole at a measurement of 5 ml in syringe and the worm was injected with as much of the 5 ml as the worm would hold. The injected worms were fed to the fish individually by placing the worm adjacent the fish and feeding was confirmed by observation. The fish ate the treated worms in all cases, showing a vigorous feeding instinct for the live worms. […] It is typical to lose some fish being treated for bacterial infections.
smiles,measurement,value
Cc1ncc([N+](=O)[O-])n1CCO [Metronidazole],loss of treated fish,None of the fish so treated were lost
same,recovery time (sufficiently recovered to be salable),sufficiently recovered to be salable within seven days
